From patent US11229636B2, “Substituted tetrahydroquinolinone compounds as ROR gamma modulators” (Aurigene Discovery Technologies Limited, priority 2015, dated 2022)

How the values were obtained:
RORγ LBD = RORγ LBD (Homo sapiens (Human), UniProt P51449); assay: ROR gamma radio-ligand binding assay (3H 25-Hydroxycholesterol competitive displacement, dextran charcoal method)
In short: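 Human RORγ LBD (aa 247–497) was expressed as a GST fusion in E. coli and purified. For binding, 300 ng protein, 5 nM ³H-25-hydroxycholesterol and compound were incubated for 30 min at room temperature in 50 mM HEPES pH 7.5, 150 mM NaCl, 0.01% BSA and 5 mM MgCl2. After dextran-charcoal separation, the supernatant was counted and 10-point curves were fitted by variable-slope sigmoid.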

[1] = target: ROR gamma ligand binding domain (Homo sapiens (Human), UniProt P51449); assay: ROR gamma luciferase reporter assay (GAL4-ROR gamma LBD, HEK293 cells); format: cell-based; settings: 48 hours treatment, read-out: RORγ luciferase Reporter assay: IC50 (nM) (in range)
In short: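 HEK293 cells were co-transfected with a GAL4 DBD–RORγ LBD fusion (hRluc vector) and a 9xGAL4 UAS luc2P reporter, then treated with compounds for 48 h. Bright-Glo luminescence was used to derive potency.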

[2] = system: EL-4 murine lymphoma cell line; settings: cited from earlier work

Sequence of RORγ LBD (P51449 268-518): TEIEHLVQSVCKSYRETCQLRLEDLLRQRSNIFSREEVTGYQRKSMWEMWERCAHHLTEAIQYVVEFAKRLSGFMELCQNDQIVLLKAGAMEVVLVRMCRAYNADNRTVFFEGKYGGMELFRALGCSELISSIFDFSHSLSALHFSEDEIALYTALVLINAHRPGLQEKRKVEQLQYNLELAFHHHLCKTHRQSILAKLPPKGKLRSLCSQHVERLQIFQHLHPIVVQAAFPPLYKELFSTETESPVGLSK
Sequence of ROR gamma ligand binding domain (P51449 269-508): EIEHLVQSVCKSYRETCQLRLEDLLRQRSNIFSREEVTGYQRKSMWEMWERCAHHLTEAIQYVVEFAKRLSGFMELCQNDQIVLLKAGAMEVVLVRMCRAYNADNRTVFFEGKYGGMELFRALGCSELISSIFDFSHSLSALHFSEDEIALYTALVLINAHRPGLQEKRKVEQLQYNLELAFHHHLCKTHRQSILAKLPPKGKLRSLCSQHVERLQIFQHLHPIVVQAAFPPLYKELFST

In the case of `CCS(=O)(=O)c1ccc(CC(=O)Nc2ccc3c(n2)CCC(C)(c2ncc(Cl)n4ccnc24)C3=O)cc1` (centres unmarked) [Compound 92, N-(6-(5-chloroimidazo[1,2-a]pyrazin-8-yl)-6-methyl-5-oxo-5,6,7,8-tetrahydroquinolin-2-yl)-2-(4-(ethylsulfonyl)phenyl)acetamide], the inhibition at 1 µM (RORγ LBD; 1 μM compound) is reported as 96%, the inhibition at 10 µM (RORγ LBD; 10 μM compound) is reported as 80% and the IC50 (RORγ LBD; in range) is reported as < 150 nM. The IC50 [1] was 100 to 500 nM.
For `OC(c1ccc(-c2ccc(CN3CCN(Cc4ccncc4)CC3)cc2)c(F)c1)(C(F)(F)F)C(F)(F)F` [SR2211], the “synthesis of IL-17” value [2] is listed as “suppress the synthesis of IL-17”.
